For four molecules, Activity, IC50 and Drug uptake results are on record in ChEMBL document CHEMBL5352436, “Triterpenoid pyrazines and pyridines - Synthesis, cytotoxicity, mechanism of action, preparation of prodrugs” (Eur J Med Chem, 2022).

The source made the active and inactive calls. No cut-off for these calls is given here.

The subject of data set [1] is CCRF-CEM. In words: Induction of apoptosis in human CCRF-CEM cells assessed as viable cells at 1 time IC50 incubated for 24 hrs by Annexin V and propidium iodide staining based flow cytometry analysis […]. It is filed as functional. In general terms: A flow cytometer gives signals particle by particle.
In data set [2] the test system is CCRF-CEM. Put plainly: Induction of apoptosis in human CCRF-CEM cells assessed as early apoptotic cells at 1 time IC50 incubated for 24 hrs by Annexin V and propidium iodide staining based flow cytometry analysis (reference value: […]). It is filed as functional.
In data set [3] the test system is CCRF-CEM. Put plainly: Induction of apoptosis in human CCRF-CEM cells assessed as late apoptotic cells at 1 time IC50 incubated for 24 hrs by Annexin V and propidium iodide staining based flow cytometry analysis (reference value: […]). In kind it is functional.
In data set [4] the test system is CCRF-CEM. Put plainly: Induction of apoptosis in human CCRF-CEM cells assessed as necrotic cells at 1 time IC50 incubated for 24 hrs by Annexin V and propidium iodide staining based flow cytometry analysis (reference value: 0.0%). It is filed as functional.
Data set [5] concerns CCRF-CEM. In words: Induction of apoptosis in human CCRF-CEM cells assessed as viable cells at 5 times IC50 incubated for 24 hrs by Annexin V and propidium iodide staining based flow cytometry analysis […]. In kind it is functional.
Data set [6] relates to CCRF-CEM. Put plainly: Induction of apoptosis in human CCRF-CEM cells assessed as early apoptotic cells at 5 times IC50 incubated for 24 hrs by Annexin V and propidium iodide staining based flow cytometry analysis […]. In kind it is functional.
Data set [7] relates to CCRF-CEM. In words: Induction of apoptosis in human CCRF-CEM cells assessed as late apoptotic cells at 5 times IC50 incubated for 24 hrs by Annexin V and propidium iodide staining based flow cytometry analysis […]. It is filed as functional.
The subject of data set [8] is CCRF-CEM. Put plainly: Induction of apoptosis in human CCRF-CEM cells assessed as necrotic cells at 5 times IC50 incubated for 24 hrs by Annexin V and propidium iodide staining based flow cytometry analysis […]. It is filed as functional.
Data set [9] concerns CCRF-CEM. Put plainly: Induction of mitochondrial damage in human CCRF-CEM cells at >= 10 uM incubated for 4 hrs by light microscopic analysis. In kind it is functional, cell-based.
Data set [10] relates to CCRF-CEM. Put plainly: Induction of mitochondrial changes in human CCRF-CEM cells at 10 uM incubated for 4 hrs by electron microscopic analysis. In kind it is functional, cell-based.
Data set [11] has as its system HCT-116. In words: Antitumor activity in human HCT-116 cells cultured as spheroids assessed as inhibition of cell growth at 10 uM incubated for 3 days. Particulars: time 3 day. It is filed as functional. Set-up: scale not given: the % may be the effect or the level left.
A further data set has as its system HeLa. Put plainly: Antitumor activity in human HeLa cells cultured as spheroids assessed as inhibition of spheroid opening at 1 uM incubated for 3 days. In kind it is functional, cell-based. Particulars: time 3.0 day.
Data set [12] deals with CCRF-CEM. In words: Induction of apoptosis in human CCRF-CEM cells assessed as accumulation of Bax protein expression at 1 to 5 times IC50 incubated for 24 hrs by Western blot analysis. It is filed as functional, cell-based. (In western blotting, separated proteins are transferred to a membrane and probed.)
In data set [13] the test system is CCRF-CEM. Put plainly: Induction of apoptosis in human CCRF-CEM cells assessed as accumulation of Bid protein expression at 1 to 5 times IC50 incubated for 24 hrs by Western blot analysis. It is filed as functional, cell-based.
Data set [14] deals with CCRF-CEM. Put plainly: Induction of apoptosis in human CCRF-CEM cells assessed as PARP cleavage at 1 to 5 times IC50 incubated for 24 hrs by Western blot analysis. In kind it is functional, cell-based.
Data set [15] concerns CCRF-CEM. In words: Induction of apoptosis in human CCRF-CEM cells assessed as increase in Noxa expression at 1 to 5 times IC50 incubated for 24 hrs by Western blot analysis. It is filed as functional, cell-based.
For data set [16], the system named is CCRF-CEM. Put plainly: Induction of apoptosis in human CCRF-CEM cells assessed as decrease in c-Myc expression at 1 to 5 times IC50 incubated for 24 hrs by Western blot analysis. In kind it is functional, cell-based.
The test system of data set [17] is CCRF-CEM. In words: Cytotoxicity against human CCRF-CEM cells assessed as reduction in cell viability incubated for 72 hrs by MTS assay. It is filed as functional, cell-based. On the technique in general: Formazan colour is commonly taken as a measure of viable cells.
A further data set relates to CEM-DNR. Put plainly: Cytotoxicity against human CEM-DNR cells assessed as reduction in cell viability incubated for 72 hrs by MTS assay. It is filed as functional, cell-based.
Another data set has as its system K562. Put plainly: Cytotoxicity against human K562 cells assessed as reduction in cell viability incubated for 72 hrs by MTS assay. The note with it: K562, 72 h. In kind it is functional, cell-based.
The nature of data set [18]: Cytotoxicity against human K562-Tax cells assessed as reduction in cell viability incubated for 72 hrs by MTS assay. In kind it is functional, cell-based.
Data set [19] concerns HCT-116. In words: Cytotoxicity against human HCT-116 cells assessed as reduction in cell viability incubated for 72 hrs by MTS assay. The note with it: HCT-116, 72 h. It is filed as functional, cell-based.
Data set [20] in a line: Cytotoxicity against human HCT116-p53-null cells assessed as reduction in cell viability incubated for 72 hrs by MTS assay. It is filed as functional, cell-based.
The subject of the next data set is A549. In words: Cytotoxicity against human A549 cells assessed as reduction in cell viability incubated for 72 hrs by MTS assay. The note with it: A549, 72 h. It is filed as functional, cell-based.
The subject of the next data set is U2OS. Put plainly: Cytotoxicity against human U2OS cells assessed as reduction in cell viability incubated for 72 hrs by MTS assay. In kind it is functional, cell-based.
A short description of data set [21]: Cytotoxicity against human BJ cells assessed as reduction in cell viability incubated for 72 hrs by MTS assay. It is filed as toxicity, cell-based.
Data set [22] in a line: Cytotoxicity against human MRC5 cells assessed as reduction in cell viability incubated for 72 hrs by MTS assay. It is filed as toxicity, cell-based.
The nature of data set [23]: Drug localization in human CCRF-CEM cells assessed as MT-CO2 signal at 10 uM incubated for 4 hrs by click reaction analysis. It is filed as ADME, cell-based.

On to `C=C(C)[C@@H]1CC[C@]2(C(=O)O)CC[C@]3(C)[C@H](CC[C@@H]4[C@@]5(C)Cc6nccnc6C(C)(C)[C@@H]5CC[C@]43C)[C@@H]12`, for which the Activity in the data set with CCRF-CEM [1] is 92.3%; with CCRF-CEM [2], 1.7%; in the data set with CCRF-CEM [3], 2.2%; in the data set on CCRF-CEM [4], 3.7%; in the data set on CCRF-CEM [5], 92%; with CCRF-CEM [6], 0.8%. In addition, the Activity in the data set on CCRF-CEM [7] is listed as 2.6%; in the data set with CCRF-CEM [8] it was 4.5%; in the data set with HCT-116 [11], 100%. The outcome in the data set on CCRF-CEM [9] was inactive. Also, the result with CCRF-CEM [10] and in the data set on HeLa was Active.
Consider `C=C(C=O)[C@@H]1CC[C@]2(C(=O)O)CC[C@]3(C)[C@H](CC[C@@H]4[C@@]5(C)Cc6nccnc6C(C)(C)[C@@H]5CC[C@]43C)[C@@H]12`, for which the Activity was determined as 85.1% with CCRF-CEM [1]; 5.5% in the data set with CCRF-CEM [2]; 3.6% with CCRF-CEM [3]; 5.8% in the data set with CCRF-CEM [4]; 2.7% in the data set with CCRF-CEM [5]; 54% in the data set with CCRF-CEM [6]. For the same molecule, the Activity with CCRF-CEM [7] is 42.8%; in the data set with CCRF-CEM [8], 0.5%; with HCT-116 [11], 100%. The result in the data set on CCRF-CEM [12], with CCRF-CEM [13], in the data set on CCRF-CEM [14], in the data set on CCRF-CEM [15], with CCRF-CEM [16] and in the data set with HeLa was Active. In the data set on CCRF-CEM [9], the result was inactive.
For `C#CCOC(=O)[C@]12CC[C@@H](C(=C)C)[C@@H]1[C@H]1CC[C@@H]3[C@@]4(C)Cc5nccnc5C(C)(C)[C@@H]4CC[C@@]3(C)[C@]1(C)CC2`, the IC50 was 45 µM in the data set with CCRF-CEM [17]; 50 µM in the data set with CEM-DNR; greater than 50 µM in the data set with K562; greater than 50 µM in [18]; greater than 50 µM with HCT-116 [19]; greater than 50 µM in data set [20]. Further, the IC50 with A549 and in the data set with U2OS was greater than 50 µM throughout. Further, the IC50 at 72 h in data set [21] and in data set [22] was greater than 50 µM throughout. Moreover, the Drug uptake result in data set [23] is on record as “Not Active”.
In the case of `C#CCOC(=O)[C@]12CC[C@@H](C(=C)C=O)[C@@H]1[C@H]1CC[C@@H]3[C@@]4(C)Cc5nccnc5C(C)(C)[C@@H]4CC[C@@]3(C)[C@]1(C)CC2`, the 50% inhibitory concentration (IC50) was 0.43 µM in the data set on CCRF-CEM [17]; 1.7 µM in the data set with CEM-DNR; 1.6 µM in the data set with K562; 1.4 µM in data set [18]; 7 µM in the data set with HCT-116 [19]; 6.3 µM in data set [20]. The IC50 came to 1.7 µM in the data set on A549 and 1.4 µM in the data set on U2OS. The IC50 at 72 h in data set [21] is 7.2 µM; in data set [22] it was 6.6 µM. Moreover, the Drug uptake entry in data set [23] is recorded as “Active”.

Usually IC50 stands for the concentration at which inhibition is half-maximal.
